Laboratory results: ChEMBL document CHEMBL4004848, “Dregamine and tabernaemontanine derivatives as ABCB1 modulators on resistant cancer cells” (Eur J Med Chem, 2017)

How the values were obtained:
[1] = target: T1, ATP-dependent translocase ABCB1 (Homo sapiens, UniProt P08183); test: Inhibition of human ABCB1 expressed in mouse L5178Y cells assessed as increase in rhodamine-123 accumulation by measuring side scatter count of cells at 20 uM pretreated for 10 mins followed by rhodamine-123 addition after 20 mins by flow cytometry (reference value: 903); assay type: cell-based
[2] = target: T1, ATP-dependent translocase ABCB1; test: Inhibition of human ABCB1 expressed in mouse L5178Y cells assessed as increase in rhodamine-123 accumulation by measuring forward scatter count of cells at 2 uM pretreated for 10 mins followed by rhodamine-123 addition after 20 mins by flow cytometry (reference value: 2206); assay type: cell-based
[3] = target: T1, ATP-dependent translocase ABCB1; test: Inhibition of human ABCB1 expressed in mouse L5178Y cells assessed as increase in rhodamine-123 accumulation by measuring forward scatter count of cells at 20 uM pretreated for 10 mins followed by rhodamine-123 addition after 20 mins by flow cytometry (reference value: 2206); assay type: cell-based
[4] = target: T1, ATP-dependent translocase ABCB1; test: Inhibition of human ABCB1 expressed in mouse L5178Y cells assessed as fluorescence activity ratio at 20 uM pretreated for 10 mins followed by rhodamine-123 addition after 20 mins by flow cytometry; assay type: cell-based
[5] = Selectivity index, ratio of IC50 for mouse NIH/3T3 cells to IC50 for mouse L5178Y cells; assay type: functional
[6] = target: T1, ATP-dependent translocase ABCB1; test: Inhibition of human ABCB1 expressed in mouse L5178Y cells assessed as fluorescence activity ratio at 2 uM pretreated for 10 mins followed by rhodamine-123 addition after 20 mins by flow cytometry; assay type: cell-based
NIH3T3 = test: Cytotoxicity against mouse NIH/3T3 cells after 24 hrs by MTT assay; assay type: cell-based; details: NIH3T3, 24 h
[7] = target: T1, ATP-dependent translocase ABCB1; test: Inhibition of human ABCB1 expressed in mouse L5178Y cells assessed as increase in rhodamine-123 accumulation by measuring side scatter count of cells at 2 uM pretreated for 10 mins followed by rhodamine-123 addition after 20 mins by flow cytometry (reference value: 903); assay type: cell-based
[8] = target: T1, ATP-dependent translocase ABCB1; test: Inhibition of human ABCB1 expressed in mouse L5178Y cells assessed as potentiation of doxorubicin-induced cytotoxicity by measuring combination index at 1:25 doxorubicin to compound ratio after 48 hrs by MTT assay; assay type: cell-based
[9] = Selectivity index, ratio of IC50 for mouse L5178Y cells to IC50 for human ABCB1 expressed in L5178Y cells
L5178Y = test: Cytotoxicity against mouse L5178Y cells after 24 hrs by MTT assay; assay type: functional, cell-based
[10] = target: T1, ATP-dependent translocase ABCB1; test: Inhibition of human ABCB1 expressed in mouse L5178Y cells pretreated for 10 mins followed by rhodamine-123 addition after 20 mins by flow cytometry; assay type: cell-based
[11] = target: T1, ATP-dependent translocase ABCB1; test: Inhibition of human ABCB1 expressed in mouse L5178Y cells assessed as potentiation of doxorubicin-induced cytotoxicity by measuring combination index at 1:5 doxorubicin to compound ratio after 48 hrs by MTT assay; assay type: cell-based
[12] = target: T1, ATP-dependent translocase ABCB1; test: Inhibition of human ABCB1 expressed in mouse L5178Y cells assessed as potentiation of doxorubicin-induced cytotoxicity by measuring combination index at 4:25 doxorubicin to compound ratio after 48 hrs by MTT assay; assay type: cell-based

T1 sequence (P08183 whole entry): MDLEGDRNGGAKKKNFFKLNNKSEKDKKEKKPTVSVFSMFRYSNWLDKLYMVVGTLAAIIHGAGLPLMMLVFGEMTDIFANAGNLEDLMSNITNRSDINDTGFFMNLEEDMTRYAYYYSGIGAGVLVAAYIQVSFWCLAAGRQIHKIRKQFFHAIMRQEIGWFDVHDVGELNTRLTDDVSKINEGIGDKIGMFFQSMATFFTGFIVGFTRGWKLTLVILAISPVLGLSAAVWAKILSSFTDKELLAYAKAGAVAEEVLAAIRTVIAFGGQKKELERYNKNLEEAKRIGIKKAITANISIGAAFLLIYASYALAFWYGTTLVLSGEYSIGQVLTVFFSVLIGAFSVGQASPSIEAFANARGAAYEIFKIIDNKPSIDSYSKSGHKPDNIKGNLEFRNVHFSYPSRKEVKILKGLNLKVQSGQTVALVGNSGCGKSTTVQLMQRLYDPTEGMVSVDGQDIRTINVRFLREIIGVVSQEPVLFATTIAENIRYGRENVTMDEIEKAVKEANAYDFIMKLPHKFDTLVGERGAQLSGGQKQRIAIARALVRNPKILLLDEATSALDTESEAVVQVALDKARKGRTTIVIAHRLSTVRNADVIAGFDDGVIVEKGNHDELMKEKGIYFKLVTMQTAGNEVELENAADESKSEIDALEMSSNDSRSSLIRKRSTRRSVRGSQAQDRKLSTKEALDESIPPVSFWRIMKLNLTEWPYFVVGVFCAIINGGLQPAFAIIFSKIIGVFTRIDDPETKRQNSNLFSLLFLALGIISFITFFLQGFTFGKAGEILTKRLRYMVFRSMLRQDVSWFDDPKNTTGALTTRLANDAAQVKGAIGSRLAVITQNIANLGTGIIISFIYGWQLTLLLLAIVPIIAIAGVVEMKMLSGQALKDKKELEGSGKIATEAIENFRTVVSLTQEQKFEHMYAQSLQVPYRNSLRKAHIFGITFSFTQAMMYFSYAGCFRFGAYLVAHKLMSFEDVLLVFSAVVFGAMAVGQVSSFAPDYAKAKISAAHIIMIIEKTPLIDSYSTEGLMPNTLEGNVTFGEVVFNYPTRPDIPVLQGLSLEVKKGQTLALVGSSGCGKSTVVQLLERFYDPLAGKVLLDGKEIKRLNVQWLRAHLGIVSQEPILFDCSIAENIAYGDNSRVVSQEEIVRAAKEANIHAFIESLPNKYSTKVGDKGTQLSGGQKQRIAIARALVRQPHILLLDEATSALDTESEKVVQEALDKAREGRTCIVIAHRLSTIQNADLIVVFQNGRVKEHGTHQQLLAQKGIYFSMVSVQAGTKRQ

Compound	Activity [1]	Activity [2]	Activity [3]	Ratio [4]	Ratio [6]	Activity [7]	inhibition (INH) [10]	Ratio IC50 [5]	IC50 (NIH3T3)	CI [8]	Ratio IC50 [9]	IC50 (L5178Y)	CI [11]	CI [12]
CC[C@H]1CN(C)[C@H]2Cc3c(n(Cc4ccccc4)c4ccccc34)C(=O)C[C@H]1[C@@H]2C(=O)OC	1193	2417	2449	55.74	4.82	1217	Dose-dependent effect	1.68	56.1 µM	0.23	0.87	33.3 µM	–	–
CC[C@H]1CN(C)[C@H]2Cc3c([nH]c4ccccc34)/C(=N/NC(=O)OCc3ccc(OC)cc3)C[C@H]1[C@@H]2C(=O)OC	746	2262	2278	72.88	31.88	784	Dose-dependent effect	–	> 100 µM	0.16	0.65	34.3 µM	–	–

The next lines start with results.

Activity [1]	Activity [2]	Activity [3]	Ratio [4]	Ratio [6]	Activity [7]	inhibition (INH) [10]	Compound	Ratio IC50 [5]	IC50 (NIH3T3)	CI [8]	Ratio IC50 [9]	IC50 (L5178Y)	CI [11]	CI [12]
1226	2242	2242	51.15	2.99	1120	Dose-dependent effect	CC[C@H]1CN(C)[C@H]2Cc3c([nH]c4ccccc34)C(=S)C[C@H]1[C@@H]2C(=O)OC	–	> 100 µM	–	0.7	54.5 µM	0.22	–
805	2244	2301	30.98	1.27	808	Dose-dependent effect	CC[C@H]1CN(C)[C@H]2Cc3c([nH]c4ccccc34)/C(=N/NC(=S)NCc3cccnc3)C[C@H]1[C@@H]2C(=O)OC	2.45	50.9 µM	–	0.46	20.8 µM	–	0.6
1071	2183	2158	60.89	8.84	1046	Dose-dependent effect	CC[C@H]1CN(C)[C@H]2Cc3c([nH]c4ccccc34)/C(=N/Nc3ccccc3)C[C@H]1[C@@H]2C(=O)OC	–	> 100 µM	–	0.84	44.2 µM	–	0.34
